Data from patent US20170298056A1, “SMALL MOLECULE INHIBITORS OF HIV-1 ENTRY AND METHODS OF USE THEREOF” (Dana-Farber Cancer Institute, Inc., priority 2014, published 2017).

Tested on: HIV-1YU2
Test: Viral infection assay, YU2 Env (wild type and mutants)
Type: cell-based
Settings: for Fold change: mutant/wild-type IC50
From the text: HIV-1 Env mutants. Mutations were introduced into the plasmid expressing the fulllength HIV-1YU2 or HIV-1JR-FL Envs using the QuikChange II site-directed mutagenesis protocol or the QuikChange multi site-directed mutagenesis kit (Stratagene). The presence of the desired mutations was confirmed by DNA sequencing. All HIV-1 Env residues are numbered based on alignment with the HXBc2 prototypic sequence, according to current convention.
Production of recombinant HIV-1 expressing luciferase. […] After 48 hours, the supernatant was collected, buffered with 50 mM Hepes pH 7.4 (final concentration) and centrifuged for 5 minutes at 750×g and 4° C. The virus-containing supernatant was used directly or frozen at −80° C.
Viral infection assay. Each test compound was serially diluted in DMSO in a 96-well B&W isoplate (PerkinElmer, Boston, Mass.) using an HP D300 Digital Dispenser, to a final volume of 450 nl. DMSO was used as a control. Viruses pseudotyped with a specific Env were added to each well and incubated briefly at room temperature. Cf2Th-CD4/CCR5 cells were detached with StemPro Accutase Cell Dissociation Reagent (Invitrogen, cat #A11105-01), washed once, and 5000 cells were added to each well. […] Following incubation, the medium was aspirated and cells were lysed with 30 μl of Passive Lysis Buffer (Promega, cat #E1941). The activity of the firefly luciferase, which was used as a reporter protein in the system, was measured with a Centro LB 960 luminometer (Berthold Technologies, Oak Ridge, Tenn.). One hundred microliters of assay buffer (15 mM MgSO4, 15 mM KH2PO4/K2HPO4 pH 7.8, 1 mM ATP and 1 mM DTT) was injected to each well, followed by a 50 μl injection of 1 mM Dluciferin potassium salt (BD Pharmingen, San Jose, Calif.); luminescence was measured for 2 sec. Infection of PBMC was done as above, but 20,000-40,000 cells/well and viruses concentrated by ultracentrifugation were used. After four hours of incubation with viruses, the cells were centrifuged at 200×g for 6 minutes at 4° C., resuspended in 100 μl RPMI-PBMC medium and incubated at 37° C. for an additional 36-40 hours (total 40-44 hours). Supernatant was removed after centrifugation at 400×g for 5 minutes and cells were processed to detect luciferase activity, as described above.

O=C(N/N=C/c1ccc(O)cc1)Nc1cccc2nsnc12 [Compound 18A]
IC50 (YU2 Env D113A): 6 ± 1.4 µM
Fold change (YU2 Env D113A): 0.7
IC50 (YU2 Env D589L): 12.1 ± 1.5 µM
Fold change (YU2 Env D589L): 1.4
IC50 (YU2 Env E370A): 2.3 ± 0.8 µM
Fold change (YU2 Env E370A): 0.3
IC50 (YU2 Env E429K): 9 ± 1.4 µM
Fold change (YU2 Env E429K): 1.1
IC50 (YU2 Env H66A): 8 ± 0.9 µM
Fold change (YU2 Env H66A): 1
IC50 (YU2 Env H66N): 4.6 ± 0.5 µM
Fold change (YU2 Env H66N): 0.5
IC50 (YU2 Env I108A): 6.1 ± 0.7 µM
Fold change (YU2 Env I108A): 0.7
IC50 (YU2 Env I109W): 2.9 ± 0.4 µM
Fold change (YU2 Env I109W): 0.3
IC50 (YU2 Env I285A): 6.3 ± 1.5 µM
Fold change (YU2 Env I285A): 0.7
IC50 (YU2 Env I309A): 4.2 ± 1.3 µM
Fold change (YU2 Env I309A): 0.5
IC50 (YU2 Env I371A): 6.5 ± 0.9 µM
Fold change (YU2 Env I371A): 0.8
IC50 (YU2 Env I420C): 2.1 ± 0.4 µM
Fold change (YU2 Env I420C): 0.2
IC50 (YU2 Env I420S): 4.8 ± 0.8 µM
Fold change (YU2 Env I420S): 0.6
IC50 (YU2 Env I423R): 2.4 ± 0.4 µM
Fold change (YU2 Env I423R): 0.3
IC50 (YU2 Env K117W): 6.5 ± 1.1 µM
Fold change (YU2 Env K117W): 0.8
IC50 (YU2 Env L111A): 10.4 ± 1.6 µM
Fold change (YU2 Env L111A): 1.2
IC50 (YU2 Env L260A): 3.4 ± 1.5 µM
Fold change (YU2 Env L260A): 0.4
IC50 (YU2 Env L261A): 4.9 ± 1 µM
Fold change (YU2 Env L261A): 0.6
IC50 (YU2 Env L317A): 10.2 ± 1.4 µM
Fold change (YU2 Env L317A): 1.2
IC50 (YU2 Env M475A (associated with resistance to BMS-806)): 10.2 ± 2.6 µM
Fold change (YU2 Env M475A): 1.2
IC50 (YU2 Env N377A): 3.3 ± 0.6 µM
Fold change (YU2 Env N377A): 0.4
IC50 (YU2 Env P212A): 10.2 ± 1.5 µM
Fold change (YU2 Env P212A): 1.2
IC50 (YU2 Env Q114N): 14.8 ± 2.1 µM
Fold change (YU2 Env Q114N): 1.7
IC50 (YU2 Env S110A): 7.3 ± 1.6 µM
Fold change (YU2 Env S110A): 0.9
IC50 (YU2 Env S110N): 5.9 ± 1.8 µM
Fold change (YU2 Env S110N): 0.7
IC50 (YU2 Env S375A): 10 ± 1.3 µM
Fold change (YU2 Env S375A): 1.2
IC50 (YU2 Env S375W (associated with resistance to BMS-806)): 14.6 ± 2.8 µM
Fold change (YU2 Env S375W): 1.7
IC50 (YU2 Env T71A): 7.1 ± 1.4 µM
Fold change (YU2 Env T71A): 0.8
IC50 (YU2 Env T257A): 13.2 ± 1.1 µM
Fold change (YU2 Env T257A): 1.5
IC50 (YU2 Env T257S): 6.9 ± 0.8 µM
Fold change (YU2 Env T257S): 0.8
IC50 (YU2 Env V255A): 14 ± 1.2 µM
Fold change (YU2 Env V255A): 1.6
IC50 (YU2 Env V255G): 7.9 ± 1.7 µM
Fold change (YU2 Env V255G): 0.9
IC50 (YU2 Env V255I): 5.4 ± 1.3 µM
Fold change (YU2 Env V255I): 0.6
IC50 (YU2 Env V255W): 3.6 ± 1.3 µM
Fold change (YU2 Env V255W): 0.4
IC50 (YU2 Env V430A): 5.9 ± 0.6 µM
Fold change (YU2 Env V430A): 0.7
IC50 (YU2 Env V430S): 2.9 ± 0.3 µM
Fold change (YU2 Env V430S): 0.3
IC50 (YU2 Env W69L): 3.5 ± 0.5 µM
Fold change (YU2 Env W69L + S375W): 1.7
Fold change (YU2 Env W69L): 0.4
IC50 (YU2 Env W479A): 1.3 ± 0.2 µM
Fold change (YU2 Env W479A): 0.2
IC50 (YU2 Env W596M): 9.4 ± 1.4 µM
Fold change (YU2 Env W596M): 1.1
IC50 (YU2 Env double mutant W69L + S375W): 15 ± 2.5 µM
IC50 (YU2 Env wild type): 8.6 ± 1.4 µM
Fold change (YU2 Env wild type): 1
